Target: T1, PatA/PatB (Streptococcus pneumoniae, UniProt Q8DN70+Q8DN72)
T1 construct: gene ABC-NP; full heterodimer co-expressed from pETDuet-1-PatA/PatB in E. coli C41(DE3), BL21(DE3), T7 express or Lemo21(DE3); His-tagged; inverted membrane vesicles, or purified in LMNG / proteoliposomes
Test: fluorescence transport assay, inverted membrane vesicles
Format: biochemical
Details: 1 µM Hoechst 33342, 2 mM GTP, 2 mM MgCl2, pH 8.0, 25 °C; transported drug

T1 sequence (Q8DN70 entry or part of it): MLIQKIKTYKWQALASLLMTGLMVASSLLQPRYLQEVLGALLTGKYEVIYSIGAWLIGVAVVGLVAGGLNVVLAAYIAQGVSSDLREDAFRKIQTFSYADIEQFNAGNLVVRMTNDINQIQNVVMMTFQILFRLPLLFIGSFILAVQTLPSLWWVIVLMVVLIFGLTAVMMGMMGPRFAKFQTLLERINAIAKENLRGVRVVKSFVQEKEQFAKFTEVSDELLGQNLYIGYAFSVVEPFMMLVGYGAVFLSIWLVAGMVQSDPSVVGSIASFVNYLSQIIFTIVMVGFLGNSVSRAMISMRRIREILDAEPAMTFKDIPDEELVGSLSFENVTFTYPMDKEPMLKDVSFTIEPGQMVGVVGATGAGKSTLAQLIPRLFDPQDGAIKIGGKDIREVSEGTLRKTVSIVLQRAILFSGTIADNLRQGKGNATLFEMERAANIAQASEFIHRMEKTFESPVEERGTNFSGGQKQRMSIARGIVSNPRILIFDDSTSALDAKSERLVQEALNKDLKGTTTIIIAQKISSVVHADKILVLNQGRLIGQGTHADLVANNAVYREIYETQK
T1 sequence (Q8DN72 entry or part of it): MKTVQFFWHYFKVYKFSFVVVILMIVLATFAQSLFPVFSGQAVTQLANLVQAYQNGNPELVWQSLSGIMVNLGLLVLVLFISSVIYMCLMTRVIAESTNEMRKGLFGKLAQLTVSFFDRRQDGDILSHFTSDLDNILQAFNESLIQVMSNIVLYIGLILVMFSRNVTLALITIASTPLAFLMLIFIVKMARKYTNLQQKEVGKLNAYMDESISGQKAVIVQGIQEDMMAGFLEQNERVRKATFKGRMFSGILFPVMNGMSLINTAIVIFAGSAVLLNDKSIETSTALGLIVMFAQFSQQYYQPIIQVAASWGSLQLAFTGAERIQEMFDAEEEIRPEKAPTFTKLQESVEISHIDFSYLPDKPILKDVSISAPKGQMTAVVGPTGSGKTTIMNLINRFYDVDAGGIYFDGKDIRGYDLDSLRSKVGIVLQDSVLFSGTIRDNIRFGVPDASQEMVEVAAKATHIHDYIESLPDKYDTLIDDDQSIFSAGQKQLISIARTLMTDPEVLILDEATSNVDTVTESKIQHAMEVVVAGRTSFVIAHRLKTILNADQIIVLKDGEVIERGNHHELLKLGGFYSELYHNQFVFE

CCOc1ccc(-c2nc3ccc(-c4nc5ccc(N6CCN(C)CC6)cc5[nH]4)cc3[nH]2)cc1 [Hoechst 33342, 2-(4-ethoxyphenyl)-5-(4-methyl-1-piperazinyl)-2,5-bis-1H-benzimidazole]
fluorescence transport assay, inverted membrane vesicles: a fluorescent drug translocated by PatA/PatB

Source: article PMC6390180, “Functionality of membrane proteins overexpressed and purified from E. coli is highly dependent upon the strain” (Scientific Reports, 2019)
